Reference: US9834521B2, “Choline kinase inhibitors” (ARIAD Pharmaceuticals, Inc., priority 2013, dated 2017)
Read-outs that look alike come from different tables or passages of the source.

Columns and labels:
[1] = target: T1, truncated form of human Choline kinase α1 that includes residues 75-457 (Homo sapiens, UniProt P35790); assay: Kinase Assay, coupled (ATP regeneration) LDH/PK assay, NADH absorbance; assay type: biochemical
T1 construct: made in house
Protocol: Absorbance of NADH (340 nm) was measured over 30 min using a SpectraMax M5 (Molecular Devices). Initial reaction velocity (ΔA340/Δt) was calculated and plotted as a function of inhibitor concentration in a 2-fold dilution series. IC50 values were obtained by fitting the relative velocities to a dose-response model.

[2] = target: T2, ChoKα protein (Homo sapiens, UniProt P35790); assay: Binding affinity by surface plasmon resonance (SensiQ Pioneer, FastStep)
T2 construct: made in house
T2 sequence (P35790 75-457): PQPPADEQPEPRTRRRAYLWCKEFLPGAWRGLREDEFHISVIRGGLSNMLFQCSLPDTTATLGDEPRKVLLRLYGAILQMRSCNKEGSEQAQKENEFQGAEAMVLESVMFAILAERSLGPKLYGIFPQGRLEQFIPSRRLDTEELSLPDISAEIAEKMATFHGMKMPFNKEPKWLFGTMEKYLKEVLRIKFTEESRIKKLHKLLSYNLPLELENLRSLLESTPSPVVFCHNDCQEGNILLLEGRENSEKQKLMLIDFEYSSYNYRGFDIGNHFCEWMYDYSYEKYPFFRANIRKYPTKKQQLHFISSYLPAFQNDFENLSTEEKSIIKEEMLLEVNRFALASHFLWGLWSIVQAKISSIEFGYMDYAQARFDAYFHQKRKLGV
Protocol: KD may be measured using surface plasmon resonance (BIAcore®) technology, see, e.g., Panayotou et al, Mol. Cell. […] ChoKα protein was immobilized by standard amine coupling methods on a COOH5 sensor chip installed in a SensiQ Pioneer system. Sensograms were measured using the FastStep™ screen method with an upper concentration of 500 nM. Kinetics and affinity were obtained from fits using a 1:1 binding model.

[3] = test system: cancer cell lines; assay: Cellular Growth Inhibition Assay (CyQuant Cell Proliferation Assay Kit); assay type: cell-based
Protocol: Cellular Growth Inhibition AssayVehicle or compound treated cells were assessed for cell growth after 72 hours of treatment using the CyQuant® Cell Proliferation Assay Kit (Life Technologies, Grand Island, N.Y.). […] Data are shown as mean (±SD) from ≧2 separate experiments.

[4] = Examples not designated with an asterisk, footnote prints version 1 of the Kinase Assay, read-out: IC50
[5] = SPR, 1:1 binding model, upper concentration 500 nM, read-out: Kd
[6] = 72 hours of treatment, cell line not named, read-out: GI50
[7] = Examples designated with an asterisk (*): version 1 of the Kinase Assay, 200 nM enzyme, read-out: IC50

T1 sequence (P35790 75-457): as above

Compound	IC50 [1, 4] [nM]	Kd [2, 5] [nM]	also measured
CN1CCCN(Cc2ccc(-c3ccc(CN4CCCN(C)CC4)cc3C#N)cc2)CC1 [Example 14, 4,4′-bis((4-methyl-1,4-diazepan-1-yl)methyl)-[1,1′-biphenyl]-2-carbonitrile]			IC50 [1]: < 100 nM; Kd [2]: < 50 nM; GI50 ([3]; 72 h): < 5000 nM
CN1CCCN(Cc2ccc(-c3ccc(C(=O)NC4CC4)cc3)c(C#N)c2)CC1 [Example 32, 2′-cyano-N-cyclopropyl-4′-((4-methyl-1,4-diazepan-1-yl)methyl)-[1,1′-biphenyl]-4-carboxamide]	< 200	< 60000	GI50 [3, 6]: < 20000 nM
CN1CCCN(Cc2ccc(-c3ccc(C(=O)N4CCCN(C)CC4)cc3)cc2)CC1 [Example 37, (4-methyl-1,4-diazepan-1-yl)(4′-((4-methyl-1,4-diazepan-1-yl)methyl)-[1,1′-biphenyl]-4-yl)methanone]			IC50 [1]: < 200 nM; Kd [2]: < 200 nM; GI50 ([3]; 72 h): > 20000 nM
CN1CCCN(Cc2ccc(-c3cc(F)c(CN4CCCN(C)CC4)c(F)c3)cc2)CC1 [Example 40, 4,4′-((3,5-difluoro-[1,1′-biphenyl]-4,4′-diyl)bis(methylene))bis(1-methyl-1,4-diazepane)]			IC50 [1]: < 200 nM; Kd [2]: < 60000 nM; GI50 ([3]; 72 h): < 20000 nM
CN1CCCN(Cc2ccc(-c3ccc(CC#N)cc3)c(C#N)c2)CC1 [Example 93, 4′-(cyanomethyl)-4-((4-methyl-1,4-diazepan-1-yl)methyl)-[1,1′-biphenyl]-2-carbonitrile]	< 200	< 60000	
CN1CCCN(Cc2ccc(-c3ccc(S(C)(=O)=O)cc3)c(C#N)c2)CC1 [Example 94, 4-((4-methyl-1,4-diazepan-1-yl)methyl)-4′-(methylsulfonyl)-[1,1′-biphenyl]-2-carbonitrile]	< 200	< 200	
CNS(=O)(=O)c1ccc(-c2ccc(CN3CCCN(C)CC3)cc2C#N)c(C)c1 [Example 97, 2′-cyano-N,2-dimethyl-4′-((4-methyl-1,4-diazepan-1-yl)methyl)-[1,1′-biphenyl]-4-sulfonamide]	< 200	< 200	
COc1ccc(-c2ccc(CN3CCCN(C)CC3)cc2)cc1 [Example 128, 1-((4′-methoxy-[1,1′-biphenyl]-4-yl)methyl)-4-methyl-1,4-diazepane]			IC50 [1]: < 200 nM; Kd [2]: < 60000 nM
CN1CCCN(Cc2ccc(-c3ccccc3)c(F)c2)CC1 [Example 134, 1-((2-fluoro-[1,1′-biphenyl]-4-yl)methyl)-4-methyl-1,4-diazepane]		< 60000	IC50 [1, 7]: < 200 nM
CN1CCCN(Cc2ccc(-c3ccc(C(F)(F)F)cc3)cc2)CC1 [Example 137, 1-methyl-4-((4′-(trifluoromethyl)-[1,1′-biphenyl]-4-yl)methyl)-1,4-diazepane]			IC50 [1]: < 200 nM; Kd [2]: < 60000 nM
CN1CCCN(Cc2ccc(-c3ccc(N4CCN(C)CC4)cc3)cc2)CC1 [Example 138, 1-methyl-4-((4′-(4-methylpiperazin-1-yl)-[1,1′-biphenyl]-411)methyl)-1,4-diazepane]			IC50 [1]: < 200 nM; Kd [2]: < 60000 nM
CN1CCCN(Cc2ccc(-n3cncn3)cc2)CC1 [Example 139, 1-(4-(1H-1,2,4-triazol-1-yl)benzyl)-4-methyl-1,4-diazepane]		< 60000	IC50 [1, 7]: < 500 nM
CN1CCCN(Cc2ccc(-c3ccncc3)cc2)CC1 [Example 140, 1-methyl-4-(4-(pyridin-4-yl)benzyl)-1,4-diazepane]		< 60000	IC50 [1, 7]: < 200 nM
CN1CCCN(Cc2ccc(-n3cccn3)cc2F)CC1 [Example 142, 1-(2-fluoro-4-(1H-pyrazol-1-yl)benzyl)-4-methyl-1,4-diazepane]		< 60000	IC50 [1, 7]: < 200 nM
CN1CCCN(Cc2ccc(CN3CCC(N4CCCC4)CC3)cc2)CC1 [Example 148, 1-methyl-4-(4-((4-(pyrrolidin-1-yl)piperidin-1-yl)methyl)benzyl)-1,4-diazepane]		< 60000	IC50 [1, 7]: < 200 nM
CN1CCCN(Cc2ccc(CNc3cccc(C(N)=O)c3)cc2)CC1 [Example 152, 3-((4-((4-methyl-1,4-diazepan-1-yl)methyl)benzyl)amino)benzamide]		< 60000	IC50 [1, 7]: < 200 nM
CN1CCCN(Cc2ccc(CNc3ccc(N4CCN(C)CC4)cc3)cc2)CC1 [Example 153, N-(4-((4-methyl-1,4-diazepan-1-yl)methyl)benzyl)-4-(4-methylpiperazin-1-yl)aniline]		< 60000	IC50 [1, 7]: < 200 nM
COC(=O)c1ccc(-c2ccc(CN3CCCN(C)CC3)cc2)cc1 [Example 158, methyl 4′-((4-methyl-1,4-diazepan-1-yl)methyl)-[1,1′-biphenyl]-4-carboxylate]			IC50 [1]: < 200 nM; Kd [2]: < 60000 nM

Second part, led by results:

IC50 [1, 4] [nM]	Kd [2, 5] [nM]	Compound	also measured
< 100	< 50	CN1CCCN(Cc2ccc(-c3ccc(CN4CCC(O)CC4)cc3)c(C#N)c2)CC1 [Example 4, 4′-((4-hydroxypiperidin-1-yl)methyl)-4-((4-methyl-1,4-diazepan-1-yl)methyl)-[1,1′-biphenyl]-2-carbonitrile]	GI50 [3, 6]: < 20000 nM
< 200	< 200	CN1CCCN(Cc2ccc(-c3ccc(C(=O)N4CCCN(C)CC4)cc3)c(C#N)c2)CC1 [Example 33, 4-((4-methyl-1,4-diazepan-1-yl)methyl)-4′-(4-methyl-1,4-diazepane-1-carbonyl)-[1,1′-biphenyl]-2-carbonitrile]	GI50 [3, 6]: > 20000 nM
< 200	< 200	CN1CCCN(Cc2ccc(-c3ccc(C(=O)N4CCCN(C)CC4)cc3-c3ccncc3)c(C#N)c2)CC1 [Example 72, 4-((4-methyl-1,4-diazepan-1-yl)methyl)-4′-(4-methyl-1,4-diazepane-1-carbonyl)-2′-(pyridin-4-yl)-[1,1′-biphenyl]-2-carbonitrile]	
< 100	< 50	CN1CCCN(Cc2ccc(-c3ccc(C(=O)N4CCCN(C)CC4)cc3-c3cccc([N+](=O)[O-])c3)c(C#N)c2)CC1 [Example 77, 4-((4-methyl-1,4-diazepan-1-yl)methyl)-4′-(4-methyl-1,4-diazepane-1-carbonyl)-3″-nitro-[1,1′:2′,1″-terphenyl]-2-carbonitrile]	
< 100	< 50	CN1CCCN(Cc2ccc(-c3ccc(C(=O)N4CCCN(C)CC4)cc3-c3cc(F)cc(F)c3)c(C#N)c2)CC1 [Example 78, 3″,5″-difluoro-4-((4-methyl-1,4-diazepan-1-yl)methyl)-4′-(4-methyl-1,4-diazepane-1-carbonyl)-[1,1′:2′,1″-terphenyl]-2-carbonitrile]	
< 100	< 50	CCOc1ccc(-c2cc(C(=O)N3CCCN(C)CC3)ccc2-c2ccc(CN3CCCN(C)CC3)cc2C#N)cc1 [Example 79, 4″-ethoxy-4-((4-methyl-1,4-diazepan-1-yl)methyl)-4′-(4-methyl-1,4-diazepane-1-carbonyl)-[1,1′1:2′,1″-terphenyl]-2-carbonitrile]	
< 100	< 50	CN1CCCN(Cc2ccc(-c3ccc(C(=O)N4CCCN(C)CC4)cc3-c3ccc(CN4CCOCC4)cc3)c(C#N)c2)CC1 [Example 80, 4-((4-methyl-1,4-diazepan-1-yl)methyl)-4′-(4-methyl-1,4-diazepane-1-carbonyl)-4″-(morpholinomethyl)-[1,1′:2′,1″-terphenyl]-2-carbonitrile]	
< 100	< 50	COc1ccc(-c2cc(C(=O)N3CCCN(C)CC3)ccc2-c2ccc(CN3CCCN(C)CC3)cc2C#N)cc1OC [Example 81, 3″,4″-dimethoxy-4-((4-methyl-1,4-diazepan-1-yl)methyl)-4′-(4-methyl-1,4-diazepane-1-carbonyl)-[1,1′1:2′,1″-terphenyl]-2-carbonitrile]	
< 100	< 100	CN1CCCN(Cc2ccc(-c3ccc(S(=O)(=O)N4CCN(C)CC4)cc3)c(C#N)c2)CC1 [Example 84, 4-((4-methyl-1,4-diazepan-1-yl)methyl)-4′-((4-methylpiperazin-1-yl)sulfonyl)-[1,1′-biphenyl]-2-carbonitrile]	
< 100	< 100	CN1CCCN(Cc2ccc(-c3ccc(S(=O)(=O)NCCO)cc3)c(C#N)c2)CC1 [Example 85, 2′-cyano-N-(2-hydroxyethyl)-4′-((4-methyl-1,4-diazepan-1-yl)methyl)-[1,1′-biphenyl]-4-sulfonamide]	
< 200	< 200	CN1CCCN(Cc2ccc(-c3ccc(S(=O)(=O)N4CCOCC4)cc3)c(C#N)c2)CC1 [Example 88, 4-((4-methyl-1,4-diazepan-1-yl)methyl)-4′-(morpholinosulfonyl)-[1,1′-biphenyl]-2-carbonitrile]	
< 200	< 200	CN1CCCN(Cc2ccc(-c3ccc(NC(N)=O)cc3)c(C#N)c2)CC1 [Example 90, 1-(2′-cyano-4′-((4-methyl-1,4-diazepan-1-yl)methyl)-[1,1′-biphenyl]-4-yl)urea]	
< 200	< 200	CN1CCCN(Cc2ccc(-c3ccc(C(=O)NN)cc3)c(C#N)c2)CC1 [Example 91, 2′-cyano-4′-((4-methyl-1,4-diazepan-1-yl)methyl)-[1,1′-biphenyl]-4-carbohydrazide]	
< 100	< 100	CNC(=O)Nc1ccc(-c2ccc(CN3CCCN(C)CC3)cc2C#N)cc1 [Example 114, 1-(2′-cyano-4′-((4-methyl-1,4-diazepan-1-yl)methyl)-[1,1′-biphenyl]-4-yl)-3-methylurea]	
